Assay results as given in article PMC8066102, “Metabolic Profiles of New Unsymmetrical Bisacridine Antitumor Agents in Electrochemical and Enzymatic Noncellular Systems and in Tumor Cells” (Pharmaceuticals, 2021).

Tests used:
Format in all cases: in vitro ADME
UGT 2B17 = target: T1, UGT 2B17 (Homo sapiens, UniProt O75795); assay: Glucuronidation with recombinant UGT2B17; parameters: key: −: the lack of UGT activity; +: the significant UGT activity; settings: 0.05 mM compound, 1 mg/mL UGT, 5 mM UDPGA
T1 construct: purchased Corning, NY, USA (through DIAG-MED, Poland); host or cells: baculovirus-insect cells (Supersomes)
T1 sequence (O75795 24-530): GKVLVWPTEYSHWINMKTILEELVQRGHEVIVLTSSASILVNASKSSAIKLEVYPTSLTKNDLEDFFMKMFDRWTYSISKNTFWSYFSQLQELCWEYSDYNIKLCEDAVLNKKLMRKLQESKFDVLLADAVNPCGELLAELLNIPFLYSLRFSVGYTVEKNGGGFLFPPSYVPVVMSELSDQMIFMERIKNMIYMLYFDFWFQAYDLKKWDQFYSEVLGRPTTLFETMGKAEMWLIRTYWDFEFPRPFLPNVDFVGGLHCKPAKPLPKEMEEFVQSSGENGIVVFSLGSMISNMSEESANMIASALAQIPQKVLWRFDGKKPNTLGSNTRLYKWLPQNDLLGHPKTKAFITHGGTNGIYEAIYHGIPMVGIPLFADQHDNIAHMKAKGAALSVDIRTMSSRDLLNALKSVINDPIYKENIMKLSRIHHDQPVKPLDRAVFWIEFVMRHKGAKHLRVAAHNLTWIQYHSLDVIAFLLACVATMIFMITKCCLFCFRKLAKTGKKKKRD
Experimental: (§1) Recombinant UGT isoform protein (1 mg/mL) was assayed for activity toward tested UAs as follows. The proteins were incubated in a buffer containing 0.1 M HEPES (pH 7.4), 8 mM MgCl2 and alamethicin (25 μg/mL) with either 0.05 mM substrate in total volume 70 µL (alamethicin was added to permeabilize the membrane). Substrates were also in buffer HEPES, pH 7.4. Reactions were started by the addition of UDPGA (5 mM) and were incubated for specified time at 37 °C. The reactions were stopped by the addition of 8.75 µL of 1 M HCl, followed by centrifugation at 13400 rpm for 10 min to pellet the denatured protein. The supernatant fractions were used for HPLC analysis. Control reactions omitting substrate were run with each assay. All incubations were performed in two repetitions.

UGT 1A9 = target: T2, UGT 1A9 (Homo sapiens, UniProt O60656); assay: Glucuronidation with recombinant UGT1A9; parameters: key: −: the lack of UGT activity; +: the significant UGT activity; settings: 0.05 mM compound, 1 mg/mL UGT, 5 mM UDPGA
T2 construct: His tag; purchased Corning, NY, USA (through DIAG-MED, Poland); host or cells: baculovirus-insect cells (Supersomes); Results say Sf9 cells
T2 sequence (O60656 26-530): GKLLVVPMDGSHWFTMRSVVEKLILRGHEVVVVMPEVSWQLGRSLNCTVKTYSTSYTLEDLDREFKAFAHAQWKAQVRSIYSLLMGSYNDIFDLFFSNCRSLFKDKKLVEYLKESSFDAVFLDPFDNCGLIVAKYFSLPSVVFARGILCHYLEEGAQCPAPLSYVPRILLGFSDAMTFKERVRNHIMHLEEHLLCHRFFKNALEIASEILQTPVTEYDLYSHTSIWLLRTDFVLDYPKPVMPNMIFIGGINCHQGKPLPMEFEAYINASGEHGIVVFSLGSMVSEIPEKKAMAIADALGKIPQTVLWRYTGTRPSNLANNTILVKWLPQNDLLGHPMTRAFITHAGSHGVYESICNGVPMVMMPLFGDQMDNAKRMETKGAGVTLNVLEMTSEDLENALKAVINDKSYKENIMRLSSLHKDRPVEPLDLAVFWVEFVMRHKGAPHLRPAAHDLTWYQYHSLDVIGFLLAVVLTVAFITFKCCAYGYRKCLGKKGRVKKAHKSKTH
Experimental: as §1

UGT2B15 = target: T3, UGT2B15 (Homo sapiens, UniProt P54855); assay: Glucuronidation with recombinant UGT2B15; parameters: key: −: the lack of UGT activity; +: the significant UGT activity; settings: 0.05 mM compound, 1 mg/mL UGT, 5 mM UDPGA
T3 construct: purchased Corning, NY, USA (through DIAG-MED, Poland); host or cells: baculovirus-insect cells (Supersomes)
T3 sequence (P54855 24-530): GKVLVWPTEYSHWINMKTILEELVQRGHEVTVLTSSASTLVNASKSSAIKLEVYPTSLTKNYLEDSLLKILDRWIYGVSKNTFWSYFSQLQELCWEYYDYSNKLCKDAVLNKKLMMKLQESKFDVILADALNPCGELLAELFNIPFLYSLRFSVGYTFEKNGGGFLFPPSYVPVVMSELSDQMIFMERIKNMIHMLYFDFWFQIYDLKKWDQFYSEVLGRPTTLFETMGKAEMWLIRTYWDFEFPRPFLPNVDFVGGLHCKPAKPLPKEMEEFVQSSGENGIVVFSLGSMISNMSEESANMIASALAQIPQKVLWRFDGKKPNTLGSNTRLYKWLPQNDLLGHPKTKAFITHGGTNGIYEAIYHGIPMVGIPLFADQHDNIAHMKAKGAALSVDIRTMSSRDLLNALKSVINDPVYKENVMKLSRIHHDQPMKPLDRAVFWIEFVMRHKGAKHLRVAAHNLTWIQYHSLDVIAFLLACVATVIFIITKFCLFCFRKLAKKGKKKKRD
Experimental: as §1

P4502C19 = target: T4, P4502C19 (Homo sapiens, UniProt P33261); assay: Metabolism with human recombinant P4502C19; settings: 0.05 mM compound, 1 mg/mL P4502C19, 2 mM NADPH, 30 min
T4 construct: purchased Cypex, Dundee, Scotland, UK (through Tebu-Bio); host or cells: Escherichia coli (Bactosomes)
T4 sequence (P33261 whole entry): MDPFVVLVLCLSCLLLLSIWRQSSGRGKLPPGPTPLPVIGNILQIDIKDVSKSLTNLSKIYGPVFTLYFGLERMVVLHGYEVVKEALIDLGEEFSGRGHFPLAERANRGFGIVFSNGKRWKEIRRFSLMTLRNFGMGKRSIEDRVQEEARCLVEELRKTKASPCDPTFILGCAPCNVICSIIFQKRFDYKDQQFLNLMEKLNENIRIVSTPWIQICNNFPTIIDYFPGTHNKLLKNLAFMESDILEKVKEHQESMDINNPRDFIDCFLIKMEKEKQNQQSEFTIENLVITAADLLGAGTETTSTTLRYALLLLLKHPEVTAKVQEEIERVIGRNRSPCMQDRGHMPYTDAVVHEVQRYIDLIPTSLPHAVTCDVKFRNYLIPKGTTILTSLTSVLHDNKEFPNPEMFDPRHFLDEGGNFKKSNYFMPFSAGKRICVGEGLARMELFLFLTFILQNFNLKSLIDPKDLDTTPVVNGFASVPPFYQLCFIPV
Experimental: UT-RLMs (2 mg/mL) and P450-RLMs induced with Dex, 3MC, or PB and recombinant P4502C19 and P4503A4 (1 mg/mL) were assayed for activity toward tested UAs as follows. The proteins were incubated in a buffer containing 0.1 M HEPES (pH 7.4), 2 mM MgCl2 with 0.05 mM substrate in total volume 70 µL. Substrates were added also in buffer HEPES, pH 7.4. Reactions were started by the addition of NADPH (2 mM) and were incubated for specified time at 37 °C. The reactions were stopped by the addition of 8.75 µL of 1 M HCl, followed by centrifugation at 13,400 rpm for 10 min to pellet the denatured protein. The supernatant fractions were used for high-performance liquid chromatography (HPLC) analysis. Control reactions omitting substrate were run with each assay. All incubations were performed in two repetitions.

Glucuronidation potency UGT 2B17 (UGT 2B17)	Glucuronidation potency UGT 1A9 (UGT 1A9)	Glucuronidation potency UGT 2B15 (UGT2B15)	substrate transformed (P4502C19)	SMILES
−	+	−	11%	Cc1ccc([N+](=O)[O-])c2c(NCCCN(C)CCCNc3ccc4ncn5c6ccc(O)cc6c(=O)c3c45)c3ccccc3nc12 [C-2045]
−	−	−	59%	CN(CCCNc1c2ccccc2nc2cccc([N+](=O)[O-])c12)CCCNc1ccc2ncn3c4ccccc4c(=O)c1c23 [C-2028]
−	−	−	~64%	Cc1ccc([N+](=O)[O-])c2c(NCCCN(C)CCCNc3ccc4ncn5c6ccccc6c(=O)c3c45)c3ccccc3nc12 [C-2053]
